Measurements reported in PubChem BioAssay (NCI).
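Cells were grown in 96-well plates and exposed to each compound for 48 hours at five concentrations; endpoints were interpolated linearly between bracketing concentrations, or set to the highest concentration if not reached. At the TGI there is no net growth.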

What was measured:
Experiment in all cases: NCI-60 cell line screen, 48 h
NCI/ADR-RES ovarian = test system: NCI/ADR-RES ovarian
RXF 393 renal = test system: RXF 393 renal
LOX IMVI melanoma = test system: LOX IMVI melanoma
IGROV1 ovarian = test system: IGROV1 ovarian
PC-3 prostate = test system: PC-3 prostate
U251 CNS = test system: U251 CNS
NCI-H23 lung = test system: NCI-H23 lung
COLO 205 colon = test system: COLO 205 colon
SR leukemia = test system: SR leukemia
OVCAR-4 ovarian = test system: OVCAR-4 ovarian
HOP-92 NSCLC = test system: HOP-92 NSCLC
ACHN renal = test system: ACHN renal
DU-145 prostate = test system: DU-145 prostate
SF-295 CNS = test system: SF-295 CNS
NCI-H226 lung = test system: NCI-H226 lung
MCF7 breast = test system: MCF7 breast
SK-MEL-2 melanoma = test system: SK-MEL-2 melanoma
HL-60(TB) leukemia = test system: HL-60(TB) leukemia
HCT-15 colon = test system: HCT-15 colon
OVCAR-8 ovarian = test system: OVCAR-8 ovarian
KM12 colon = test system: KM12 colon
SF-268 CNS = test system: SF-268 CNS
CAKI-1 renal = test system: CAKI-1 renal
HCC-2998 colon = test system: HCC-2998 colon
SK-MEL-5 melanoma = test system: SK-MEL-5 melanoma
HOP-62 NSCLC = test system: HOP-62 NSCLC
UO-31 renal = test system: UO-31 renal
TK-10 renal = test system: TK-10 renal
SNB-75 CNS = test system: SNB-75 CNS
SNB-19 CNS = test system: SNB-19 CNS
EKVX NSCLC = test system: EKVX NSCLC
SW-620 colon = test system: SW-620 colon
A498 renal = test system: A498 renal
M14 melanoma = test system: M14 melanoma
786-0 renal = test system: 786-0 renal
UACC-62 melanoma = test system: UACC-62 melanoma
SK-MEL-28 melanoma = test system: SK-MEL-28 melanoma
MDA-MB-231 breast = test system: MDA-MB-231 breast
HT29 colon = test system: HT29 colon
MDA-MB-435 = test system: MDA-MB-435
CCRF-CEM leukemia = test system: CCRF-CEM leukemia
K-562 leukemia = test system: K-562 leukemia
T-47D breast = test system: T-47D breast
SK-OV-3 ovarian = test system: SK-OV-3 ovarian
NCI-H460 lung = test system: NCI-H460 lung
HS 578T breast = test system: HS 578T breast
UACC-257 melanoma = test system: UACC-257 melanoma
SF-539 CNS = test system: SF-539 CNS
BT-549 breast = test system: BT-549 breast
RPMI-8226 leukemia = test system: RPMI-8226 leukemia
HCT-116 colon = test system: HCT-116 colon
NCI-H522 lung = test system: NCI-H522 lung
A549 NSCLC = test system: A549 NSCLC
MALME-3M melanoma = test system: MALME-3M melanoma
SN12C renal = test system: SN12C renal
OVCAR-5 ovarian = test system: OVCAR-5 ovarian
OVCAR-3 ovarian = test system: OVCAR-3 ovarian
MOLT-4 leukemia = test system: MOLT-4 leukemia

CCOC(=O)C(C)c1nc2cc3cccnc3c(Cl)c2[nH]c1=O (configuration not stated)
TGI (NCI/ADR-RES ovarian): > 100 µM
TGI (RXF 393 renal): > 100 µM
TGI (LOX IMVI melanoma): > 100 µM
TGI (IGROV1 ovarian): > 100 µM
TGI (PC-3 prostate): > 100 µM
TGI (U251 CNS): > 100 µM
TGI (NCI-H23 lung): > 100 µM
TGI (COLO 205 colon): > 100 µM
TGI (SR leukemia): > 100 µM
TGI (OVCAR-4 ovarian): > 100 µM
TGI (HOP-92 NSCLC): > 100 µM
TGI (ACHN renal): > 100 µM
TGI (DU-145 prostate): 50 µM
TGI (SF-295 CNS): > 100 µM
TGI (NCI-H226 lung): > 100 µM
TGI (MCF7 breast): > 100 µM
TGI (SK-MEL-2 melanoma): > 100 µM
TGI (HL-60(TB) leukemia): > 100 µM
TGI (HCT-15 colon): > 100 µM
TGI (OVCAR-8 ovarian): > 100 µM
TGI (KM12 colon): > 100 µM
TGI (SF-268 CNS): > 100 µM
TGI (CAKI-1 renal): > 100 µM
TGI (HCC-2998 colon): > 100 µM
TGI (SK-MEL-5 melanoma): > 100 µM
TGI (HOP-62 NSCLC): > 100 µM
TGI (UO-31 renal): > 100 µM
TGI (TK-10 renal): > 100 µM
TGI (SNB-75 CNS): > 100 µM
TGI (SNB-19 CNS): > 100 µM
TGI (EKVX NSCLC): > 100 µM
TGI (SW-620 colon): > 100 µM
TGI (A498 renal): > 100 µM
TGI (M14 melanoma): > 100 µM
TGI (786-0 renal): > 100 µM
TGI (UACC-62 melanoma): > 100 µM
TGI (SK-MEL-28 melanoma): > 100 µM
TGI (MDA-MB-231 breast): > 100 µM
TGI (HT29 colon): > 100 µM
TGI (MDA-MB-435): > 100 µM
TGI (CCRF-CEM leukemia): > 100 µM
TGI (K-562 leukemia): > 100 µM
TGI (T-47D breast): > 100 µM
TGI (SK-OV-3 ovarian): > 100 µM
TGI (NCI-H460 lung): > 100 µM
TGI (HS 578T breast): > 100 µM
TGI (UACC-257 melanoma): > 100 µM
TGI (SF-539 CNS): > 100 µM
TGI (BT-549 breast): > 100 µM
TGI (RPMI-8226 leukemia): > 100 µM
TGI (HCT-116 colon): > 100 µM

CCOC(=O)C(Br)(C(N)=O)C1(O)OC(c2ccccc2)=C(Br)C1=O (configuration not stated)
TGI (NCI/ADR-RES ovarian): > 100 µM
TGI (RXF 393 renal): 34.4 µM
TGI (LOX IMVI melanoma): 46.1 µM
TGI (IGROV1 ovarian): 43.5 µM
TGI (PC-3 prostate): 36.3 µM
TGI (U251 CNS): 32.6 µM
TGI (NCI-H23 lung): 53.7 µM
TGI (COLO 205 colon): 30.7 µM
TGI (SR leukemia): 41.3 µM
TGI (ACHN renal): 32.3 µM
TGI (DU-145 prostate): > 100 µM
TGI (SF-295 CNS): > 100 µM
TGI (NCI-H226 lung): 42.3 µM
TGI (MCF7 breast): 41 µM
TGI (SK-MEL-2 melanoma): > 100 µM
TGI (HL-60(TB) leukemia): > 100 µM
TGI (HCT-15 colon): 34.8 µM
TGI (NCI-H522 lung): 11.7 µM
TGI (OVCAR-8 ovarian): 33.3 µM
TGI (KM12 colon): > 100 µM
TGI (SF-268 CNS): 41.5 µM
TGI (CAKI-1 renal): 40.1 µM
TGI (HCC-2998 colon): 35 µM
TGI (A549 NSCLC): 66.8 µM
TGI (SK-MEL-5 melanoma): 60.2 µM
TGI (HOP-62 NSCLC): 81.2 µM
TGI (UO-31 renal): 44 µM
TGI (MALME-3M melanoma): 55.6 µM
TGI (TK-10 renal): 33.3 µM
TGI (SNB-19 CNS): > 100 µM
TGI (EKVX NSCLC): 46.8 µM
TGI (SW-620 colon): 43.1 µM
TGI (A498 renal): > 100 µM
TGI (M14 melanoma): 62.9 µM
TGI (786-0 renal): 41.9 µM
TGI (UACC-62 melanoma): 92.9 µM
TGI (SK-MEL-28 melanoma): > 100 µM
TGI (MDA-MB-231 breast): 33.6 µM
TGI (HT29 colon): 39.3 µM
TGI (MDA-MB-435): > 100 µM
TGI (SN12C renal): 31.7 µM
TGI (CCRF-CEM leukemia): 10.2 µM
TGI (OVCAR-5 ovarian): 37 µM
TGI (K-562 leukemia): 53.7 µM
TGI (T-47D breast): 59.6 µM
TGI (SK-OV-3 ovarian): > 100 µM
TGI (NCI-H460 lung): > 100 µM
TGI (HS 578T breast): > 100 µM
TGI (UACC-257 melanoma): > 100 µM
TGI (SF-539 CNS): 32.3 µM
TGI (BT-549 breast): 34.3 µM
TGI (RPMI-8226 leukemia): 27.7 µM
TGI (OVCAR-3 ovarian): 55 µM
TGI (HCT-116 colon): 36.5 µM

CC(C)(O)[C@@H]1CC[C@](C)(C2[C@@H](O)C[C@@]3(C)C4C[C@H](OC5OCC(O)C(O)C5O)[C@H]5C(C)(C)[C@@H](OC6OCC(O)C(O)C6OC6OCC(O)C(O)C6O)CC[C@@]56C[C@@]46CC[C@]23C)O1 (some centres not stated)
TGI (NCI/ADR-RES ovarian): > 100 µM
TGI (RXF 393 renal): > 100 µM
TGI (IGROV1 ovarian): > 100 µM
TGI (PC-3 prostate): > 100 µM
TGI (U251 CNS): > 100 µM
TGI (NCI-H23 lung): > 100 µM
TGI (COLO 205 colon): > 100 µM
TGI (SR leukemia): > 100 µM
TGI (OVCAR-4 ovarian): > 100 µM
TGI (DU-145 prostate): > 100 µM
TGI (SF-295 CNS): > 100 µM
TGI (NCI-H226 lung): > 100 µM
TGI (MCF7 breast): > 100 µM
TGI (SK-MEL-2 melanoma): > 100 µM
TGI (HL-60(TB) leukemia): > 100 µM
TGI (HCT-15 colon): > 100 µM
TGI (NCI-H522 lung): > 100 µM
TGI (OVCAR-8 ovarian): > 100 µM
TGI (KM12 colon): > 100 µM
TGI (SF-268 CNS): > 100 µM
TGI (CAKI-1 renal): > 100 µM
TGI (HCC-2998 colon): > 100 µM
TGI (A549 NSCLC): > 100 µM
TGI (SK-MEL-5 melanoma): > 100 µM
TGI (HOP-62 NSCLC): > 100 µM
TGI (UO-31 renal): > 100 µM
TGI (SNB-75 CNS): > 100 µM
TGI (SNB-19 CNS): > 100 µM
TGI (EKVX NSCLC): > 100 µM
TGI (SW-620 colon): > 100 µM
TGI (A498 renal): > 100 µM
TGI (M14 melanoma): > 100 µM
TGI (786-0 renal): > 100 µM
TGI (UACC-62 melanoma): > 100 µM
TGI (SK-MEL-28 melanoma): > 100 µM
TGI (MDA-MB-231 breast): > 100 µM
TGI (HT29 colon): > 100 µM
TGI (MDA-MB-435): > 100 µM
TGI (SN12C renal): > 100 µM
TGI (CCRF-CEM leukemia): > 100 µM
TGI (MOLT-4 leukemia): > 100 µM
TGI (OVCAR-5 ovarian): > 100 µM
TGI (K-562 leukemia): > 100 µM
TGI (T-47D breast): > 100 µM
TGI (SK-OV-3 ovarian): > 100 µM
TGI (NCI-H460 lung): > 100 µM
TGI (HS 578T breast): > 100 µM
TGI (SF-539 CNS): > 100 µM
TGI (BT-549 breast): > 100 µM
TGI (RPMI-8226 leukemia): > 100 µM
TGI (OVCAR-3 ovarian): > 100 µM
TGI (HCT-116 colon): > 100 µM
